Measured values published in the supplement of paper PMC11061612.

Tests used:
AZD1390 = compound: CC(C)n1c(=O)n(C)c2cnc3cc(F)c(-c4ccc(OCCCN5CCCCC5)nc4)cc3c21 [AZD1390]; conditions: max 0.3 µM
Procedure, shortened: (§1)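 Following 24 hours at 37°C and 5% CO2, cancer cell lines in 1536-well plates with 7.5 μl DMEM/F12 or RPMI and 10% FBS were dosed for 72 hours, final DMSO typically being 0.2%. CellTiter-Glo 2.0 luminescence, scaled between blank-well and DMSO-well means, gave the viability readout. Dose responses were fitted to a two-parameter logistic curve with a non-linear mixed effects model, and the single-agent IC50 was derived from this fit.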

Gefitinib = compound: COc1cc2ncnc(Nc3ccc(F)c(Cl)c3)c2cc1OCCCN1CCOCC1 [Gefitinib]; conditions: max 10 µM
Procedure, shortened: as §1

Trametinib = compound: CC(=O)Nc1cccc(-n2c(=O)n(C3CC3)c(=O)c3c(Nc4ccc(I)cc4F)n(C)c(=O)c(C)c32)c1 [Trametinib]; conditions: max 1 µM
Procedure, shortened: as §1

Alisertib = compound: COc1cc(Nc2ncc3c(n2)-c2ccc(Cl)cc2C(c2c(F)cccc2OC)=NC3)ccc1C(=O)O [Alisertib]; conditions: max 10 µM
Procedure, shortened: as §1

AZD8186 = compound: C[C@@H](Nc1cc(F)cc(F)c1)c1cc(C(=O)N(C)C)cc2c(=O)cc(N3CCOCC3)oc12 [AZD8186]; conditions: max 3 µM
Procedure, shortened: as §1

Selumetinib = compound: Cn1cnc2c(F)c(Nc3ccc(Br)cc3Cl)c(C(=O)NOCCO)cc21 [Selumetinib]; conditions: max 10 µM
Procedure, shortened: as §1

AZD7648 = compound: Cc1cc2ncnn2cc1Nc1ncc2c(n1)n(C1CCOCC1)c(=O)n2C [AZD7648]; conditions: max 10 µM
Procedure, shortened: as §1

AZD4320 = compound: CN(CC[C@H](CSC1=CC=CC=C1)NC2=C(C=C(C=C2)S(=O)(=O)NC(=O)C3=CC=C(C=C3)N4CCC(CC4)[C@H](C5=CC=CC=C5C6=CC=C(C=C6)Cl)O)S(=O)(=O)C(F)(F)F)CCO [AZD4320]; conditions: max 1 µM
Procedure, shortened: as §1

AZD5991 = compound: Cc1c2c(nn1C)CSCc1cc(n(C)n1)CSc1cc(c3ccccc3c1)OCCCc1c(C(=O)O)n(C)c3c-2c(Cl)ccc13 [AZD5991]; conditions: max 1 µM
Procedure, shortened: as §1

SN-38 = compound: CCc1c2c(nc3ccc(O)cc13)-c1cc3c(c(=O)n1C2)COC(=O)[C@]3(O)CC [SN-38]; conditions: max 0.3 µM
Procedure, shortened: as §1

SG3199 = compound: CC1=CN2[C@@H](C1)C=NC3=CC(=C(C=C3C2=O)OC)OCCCCCOC4=C(C=C5C(=C4)N=C[C@@H]6CC(=CN6C5=O)C)OC [SG3199]; conditions: max 0.001 µM
Procedure, shortened: as §1

Venetoclax = compound: CC1(C)CCC(CN2CCN(c3ccc(C(=O)NS(=O)(=O)c4ccc(NCC5CCOCC5)c([N+](=O)[O-])c4)c(Oc4cnc5[nH]ccc5c4)c3)CC2)=C(c2ccc(Cl)cc2)C1 [Venetoclax]; conditions: max 1 µM
Procedure, shortened: as §1

Lapatinib = compound: CS(=O)(=O)CCNCc1ccc(-c2ccc3ncnc(Nc4ccc(OCc5cccc(F)c5)c(Cl)c4)c3c2)o1 [Lapatinib]; conditions: max 10 µM
Procedure, shortened: as §1

Doxorubicin = compound: COc1cccc2c1C(=O)c1c(O)c3c(c(O)c1C2=O)C[C@@](O)(C(=O)CO)C[C@@H]3O[C@H]1C[C@H](N)[C@H](O)[C@H](C)O1 [Doxorubicin]; conditions: max 1 µM
Procedure, shortened: as §1

Palbociclib = compound: CC(=O)c1c(C)c2cnc(Nc3ccc(N4CCNCC4)cn3)nc2n(C2CCCC2)c1=O [Palbociclib]; conditions: max 10 µM
Procedure, shortened: as §1

Capivasertib = compound: C1CN(CCC1(C(=O)N[C@@H](CCO)C2=CC=C(C=C2)Cl)N)C3=NC=NC4=C3C=CN4 [Capivasertib]; conditions: max 10 µM
Procedure, shortened: as §1

Olaparib = compound: O=C(c1cc(Cc2n[nH]c(=O)c3ccccc23)ccc1F)N1CCN(C(=O)C2CC2)CC1 [Olaparib]; conditions: max 10 µM
Procedure, shortened: as §1

AZD5153 = compound: COc1nnc2ccc(N3CCC(c4ccc(OCCN5CCN(C)C(=O)[C@H]5C)cc4)CC3)nn12 [AZD5153]; conditions: max 1 µM
Procedure, shortened: as §1

Prexasertib = compound: COc1cccc(OCCCN)c1-c1cc(Nc2cnc(C#N)cn2)n[nH]1 [Prexasertib]; conditions: max 1 µM
Procedure, shortened: as §1

Dasatinib = compound: CC1=C(C(=CC=C1)Cl)NC(=O)C2=CN=C(S2)NC3=CC(=NC(=N3)C)N4CCN(CC4)CCO [Dasatinib]; conditions: max 2 µM
Procedure, shortened: as §1

Savolitinib = compound: C[C@@H](c1ccc2nccn2c1)n1nnc2ncc(-c3cnn(C)c3)nc21 [Savolitinib]; conditions: max 1 µM
Procedure, shortened: as §1

AZD6738 = compound: C[C@@H]1COCCN1C2=NC(=NC(=C2)C3(CC3)[S@](=N)(=O)C)C4=C5C=CNC5=NC=C4 [AZD6738]; conditions: max 10 µM
Procedure, shortened: as §1

Taselisib = compound: Cc1nc(-c2cn3c(n2)-c2ccc(-c4cnn(C(C)(C)C(N)=O)c4)cc2OCC3)n(C(C)C)n1 [Taselisib]; conditions: max 10 µM
Procedure, shortened: as §1

AZD2811 = compound: CCN(CCO)CCCOc1ccc2c(Nc3cc(CC(=O)Nc4cccc(F)c4)[nH]n3)ncnc2c1 [AZD2811]; conditions: max 1 µM
Procedure, shortened: as §1

AZD1775 = compound: C=CCn1c(=O)c2cnc(Nc3ccc(N4CCN(C)CC4)cc3)nc2n1-c1cccc(C(C)(C)O)n1 [AZD1775]; conditions: max 3 µM
Procedure, shortened: as §1

Crizotinib = compound: C[C@@H](Oc1cc(-c2cnn(C3CCNCC3)c2)cnc1N)c1c(Cl)ccc(F)c1Cl [Crizotinib]; conditions: max 10 µM
Procedure, shortened: as §1

AZD0156 = compound: CN(C)CCCOc1ccc(-c2ccc3ncc4c(c3c2)n(C2CCOCC2)c(=O)n4C)cn1 [AZD0156]; conditions: max 3 µM
Procedure, shortened: as §1

MK-2206 = compound: NC1(c2ccc(-c3nc4ccn5c(=O)[nH]nc5c4cc3-c3ccccc3)cc2)CCC1 [MK-2206]; conditions: max 10 µM
Procedure, shortened: as §1

Cell Line | IC50, cell viability 72 h (AZD1390) | IC50, cell viability 72 h (Gefitinib) | IC50, cell viability 72 h (Trametinib) | IC50, cell viability 72 h (Alisertib) | IC50, cell viability 72 h (AZD8186) | IC50, cell viability 72 h (Selumetinib) | IC50, cell viability 72 h (AZD7648) | IC50, cell viability 72 h (AZD4320) | IC50, cell viability 72 h (AZD5991) | IC50, cell viability 72 h (SN-38) | IC50, cell viability 72 h (SG3199) | IC50, cell viability 72 h (Venetoclax) | IC50, cell viability 72 h (Lapatinib) | IC50, cell viability 72 h (Doxorubicin) | IC50, cell viability 72 h (Palbociclib) | IC50, cell viability 72 h (Capivasertib) | IC50, cell viability 72 h (Olaparib) | IC50, cell viability 72 h (AZD5153) | IC50, cell viability 72 h (Prexasertib) | IC50, cell viability 72 h (Dasatinib) | IC50, cell viability 72 h (Savolitinib) | IC50, cell viability 72 h (AZD6738) | IC50, cell viability 72 h (Taselisib) | IC50, cell viability 72 h (AZD2811) | IC50, cell viability 72 h (AZD1775) | IC50, cell viability 72 h (Crizotinib) | IC50, cell viability 72 h (AZD0156) | IC50, cell viability 72 h (MK-2206)
TCCSUP (Bladder Carcinoma) | > 300 nM | > 10000 nM | > 1000 nM | > 10000 nM | > 3000 nM | > 10000 nM | > 10000 nM | > 1000 nM | > 1000 nM | 201 nM | > 1 nM | > 1000 nM | > 10000 nM | > 1000 nM | > 10000 nM | > 10000 nM | > 10000 nM | > 1000 nM | 165 nM | > 2000 nM | > 1000 nM | 8380 nM | > 10000 nM | > 1000 nM | 2310 nM | > 10000 nM | > 3000 nM | 
AGS (Gastric Carcinoma) | > 300 nM | > 10000 nM | 11.9 nM | > 10000 nM | > 3000 nM | 767 nM | > 10000 nM | > 1000 nM | > 1000 nM | 22.6 nM | > 1 nM | > 1000 nM | > 10000 nM | 151 nM | > 10000 nM | > 10000 nM | > 10000 nM | 251 nM | 839 nM | > 2000 nM | > 1000 nM | 4930 nM | 577 nM | > 1000 nM | 455 nM | > 10000 nM | > 3000 nM | 
MFE-296 (Endometrial Carcinoma) | > 300 nM | > 10000 nM | > 1000 nM | > 10000 nM | > 3000 nM | > 10000 nM | > 10000 nM | > 1000 nM | > 1000 nM | 158 nM | > 1 nM | > 1000 nM | > 10000 nM | > 1000 nM | > 10000 nM | > 10000 nM | > 10000 nM | > 1000 nM | 385 nM | > 2000 nM | > 1000 nM | > 10000 nM | > 10000 nM | > 1000 nM | > 3000 nM | > 10000 nM | > 3000 nM | > 10000 nM
SK-ES-1 (Ewing's Sarcoma) | > 300 nM | > 10000 nM | > 1000 nM | 94.1 nM | > 3000 nM | > 10000 nM | > 10000 nM | 150 nM | 236 nM | 1.6 nM | > 1 nM | > 1000 nM | > 10000 nM | 53.3 nM | 2390 nM | > 10000 nM | 2610 nM | 296 nM | 28 nM | > 2000 nM | > 1000 nM | 2890 nM | 676 nM | 17.9 nM | 618 nM | 1410 nM | > 3000 nM | 
LU-135 (Small Cell Lung Carcinoma) | > 300 nM | > 10000 nM | > 1000 nM | 317 nM | > 3000 nM | > 10000 nM | > 10000 nM | 17.6 nM | > 1000 nM | 27.9 nM | > 1 nM | > 1000 nM | 9730 nM | 214 nM | > 10000 nM | > 10000 nM | > 10000 nM | 66.1 nM | 343 nM | > 2000 nM | > 1000 nM | 6100 nM | > 10000 nM | 25.7 nM | 1840 nM | 2590 nM | > 3000 nM | 
KYSE-520 (Esophageal Squamous Cell Carcinoma) | > 300 nM | 3920 nM | 181 nM | > 10000 nM | > 3000 nM | > 10000 nM | > 10000 nM | > 1000 nM | > 1000 nM | > 300 nM | > 1 nM | > 1000 nM | 3080 nM | > 1000 nM | > 10000 nM | > 10000 nM | > 10000 nM | 278 nM | 116 nM | 233 nM | > 1000 nM | > 10000 nM | 1250 nM | > 1000 nM | > 3000 nM | > 10000 nM | > 3000 nM | 
MDA-MB-361 (Breast Carcinoma) | > 300 nM | > 10000 nM | > 1000 nM | > 10000 nM | > 3000 nM | > 10000 nM | > 10000 nM | > 1000 nM | 579 nM | 275 nM | > 1 nM | > 1000 nM | > 10000 nM | > 1000 nM | > 10000 nM | 9810 nM | > 10000 nM | > 1000 nM | 6.52 nM | > 2000 nM | > 1000 nM | 2180 nM | 103 nM | > 1000 nM | 515 nM | > 10000 nM | > 3000 nM | 
KP-1N (Pancreatic Carcinoma) | > 300 nM | > 10000 nM | > 1000 nM | > 10000 nM | > 3000 nM | > 10000 nM | > 10000 nM | > 1000 nM | > 1000 nM | > 300 nM | > 1 nM | > 1000 nM | > 10000 nM | > 1000 nM | > 10000 nM | > 10000 nM | > 10000 nM | > 1000 nM | > 1000 nM | > 2000 nM | > 1000 nM | > 10000 nM | > 10000 nM | > 1000 nM | > 3000 nM | > 10000 nM | > 3000 nM | 
